Data on 72 compounds can be found in patent US7547804B2, “Compounds, compositions, and methods employing same” (Myriad Genetics, Inc., priority 2002, dated 2009).

pEC50: −log10 of the molar value.

For the first assay, the system named is LNCaP cell lines. Briefly: WST-1 Cell Proliferation and Viability Assay. Format: cell-based. As to conditions: Homo sapiens; LNCaP cells, compound incubation 18-72 hours. On the procedure: WST-1 Cell Proliferation and Viability Assay
Cell proliferation and cell viability was assessed using the tetrazolium salt WST-1 (Roche Applied Science, Indianapolis Ind.). The assay is based on the cleavage of WST-1 (light red) by mitochondrial dehydrogenase causing the formation of formazan (dark red), which can be measured on an optical density (O.D.) reader. LNCaP cell lines were plated in 96 well tissue culture plates (Corning Costar, N.Y.) at a density of 5000 cells/well in 150 μl complete media phenol-red free (RPMI-1640 [Invitrogen, Carlsbad Calif.] and 10% fetal calf serum). This plate is termed the assay plate. After the cells are plated, they are then incubated overnight at 37 degrees Celsius in a humidified chamber containing 5% CO2 (incubator).
Compounds are added to the assay plate in 50 μl of complete media and 0.4% DMSO (v:v) making the final DMSO concentration 0.1%. The assay plate is then returned to the incubator for 18-72 hours. WST-1 reagent is then added (20 μl/well) and the plate is placed on an ELISA plate shaker for 30 minutes at room temperature. Plates are then transferred back to the incubator for an additional 3 hours. Plates are then read on a 96 well plate O.D. reader at A490-A650.
For the compound `O=C(NCc1cccc(-c2ccccc2)c1)c1cc(Br)ccc1O` [Compound 192], the pEC50 is 4.52. The same measure, in the same setting: as for `COc1ccccc1CCOc1cccc(NC(=O)c2cc(-c3cc4ccccc4s3)ccc2O)c1` [Compound 354], the figure is 5.14. Same read-out and setting: with `CCOc1cc(CNc2cccc(NC(=O)c3cc(Cl)ccc3O)c2)ccc1OC` [Compound 20] the figure was 4.62; with `O=C(Nc1cccc(Cl)c1)c1cc(Cl)ccc1O` [Compound 94], 5.52. The same measure, in the same setting: with `CC1CN(c2ccc(NC(=O)c3cc(Cl)ccc3O)c(OCCc3ccccc3C(F)(F)F)c2)CC(C)O1` (stereo not drawn) [Compound 241] the figure was 5.52. `O=C(Nc1cc(OC(F)(F)F)ccc1OCCc1cccc(C(F)(F)F)c1)c1cc(Cl)ccc1O` [Compound 262] had a pEC50 of 6.05.

Compound `CC(C)c1ccccc1-c1cccc(CNC(=O)c2cc(Cl)ccc2O)c1` [Compound 174] showed a pEC50 of 4.96. The same measure, in the same setting: with `COc1ccccc1CCOc1cccc(NC(=O)c2cccc(-c3ccccc3)c2O)c1` [Compound 221] the figure was 4.77; with `COc1cccc(CCOc2ccc(Cl)c(NC(=O)c3cc(Cl)ccc3O)c2)c1` [Compound 33], 5.52. On the same count and under the same terms, with `O=C(Nc1cc(C(F)(F)F)ccc1Oc1ccc(Cl)c2ccccc12)c1cc(Cl)ccc1O` [Compound 264] the figure was 6.00; with `COc1ccccc1CCOc1cccc(NC(=O)c2cc(-c3cccc(C(C)C)c3)ccc2O)c1` [Compound 345], 5.05; with `O=C(Nc1cc(OCCc2ccccc2)ccc1Cl)c1cc(Cl)ccc1O` [Compound 27], 5.40. On the same count and under the same terms, as for `O=C(Nc1cccc(CCOc2ccccc2)c1)c1cc(Cl)ccc1O` [Compound 18], the figure is 5.00; as for `O=C(Nc1cc(Cl)ccc1OCCCc1ccccc1)c1cc(Cl)ccc1O` [Compound 75], 6.00. Consider `O=C(Nc1cccc(CNc2ccccc2)c1)c1cc(Cl)ccc1O` [Compound 36], for which the pEC50 was 4.68.

The compound `Cc1cc(OCCc2ccccc2C(F)(F)F)c(NC(=O)c2cc(Cl)ccc2O)cc1Cl` [Compound 136] had a pEC50 of 6.00. On the same count and under the same terms, as for `O=C(Nc1cc(C(F)(F)F)ccc1OCCc1ccc(Cl)cc1)c1cc(Cl)ccc1O` [Compound 129], the figure is 6.10; as for `O=C(Nc1cccc(OCCCc2ccccc2)c1)c1cc(Cl)ccc1O` [Compound 96], 5.00. Same read-out and setting: with `COc1ccc(NC(=O)c2cc(Cl)ccc2O)cc1OCCc1ccccc1` [Compound 12] the figure was 4.89; with `O=C(Nc1ccc(C(F)(F)F)cc1)c1cc(Cl)ccc1O` [Compound 61], 6.00. The same measure, in the same setting: with `O=C(Nc1cc(Cl)ccc1OCCc1ccccc1)c1cc(Cl)ccc1O` [Compound 22] the figure was 5.70; with `Cc1c(NC(=O)c2cc(Cl)ccc2O)cccc1OCCc1ccccc1` [Compound 48], 5.15; with `O=C(Nc1cccc(OCCc2ccccc2)c1)c1cccc(-c2ccccc2)c1O` [Compound 224], 4.66.

In turn, `Cc1ccc(C(=O)NCc2cccc(-c3ccccc3)c2)c(O)c1` [Compound 205] had a pEC50 of 4.37. Compound `N#Cc1ccc(OCCc2ccccc2C(F)(F)F)c(NC(=O)c2cc(Cl)ccc2O)c1` [Compound 140] showed a pEC50 of 5.52. On the same count and under the same terms, with `COc1ccccc1CCOc1cccc(NC(=O)c2cc(-c3ccccc3)ccc2O)c1` [Compound 234] the figure was 5.00; with `O=C(Nc1cc(C(F)(F)F)ccc1OCCc1cccc(C(F)(F)F)c1)c1cc(Cl)ccc1O` [Compound 155], 6.40; with `COc1ccccc1CCOc1cccc(NC(=O)c2cccc(C)c2O)c1` [Compound 207], 4.48. The compound `CCC(COc1cccc(NC(=O)c2cc(Cl)ccc2O)c1)c1ccccc1` (stereo not drawn) [Compound 42] gave a pEC50 of 5.52.

Compound `O=C(Nc1cc(Cl)ccc1OCCc1ccccc1)c1cnc2cc(C(F)(F)F)ccc2c1O` [Compound 166] gave a pEC50 of 5.00. Same read-out and setting: with `COC(=O)c1ccc(OCCc2ccccc2)c(NC(=O)c2cc(Cl)ccc2O)c1` [Compound 325] the figure was 5.48; with `O=C(Nc1cccc(OC2CCCCC2c2ccc(Cl)cc2)c1)c1cc(Cl)ccc1O` (stereo not drawn) [Compound 282], 5.40; with `COc1ccccc1CCOc1cccc(NC(=O)c2cc(-c3ccc4c(c3)OCO4)ccc2O)c1` [Compound 348], 4.77. In turn, `O=C(NCc1cccc(-c2ccccc2)c1)c1ccc(F)cc1O` [Compound 189] gave a pEC50 of 4.52. Still for that read-out and setting: with `O=C(NCc1ccc(Oc2ccccc2)cc1)c1cc(Cl)ccc1O` [Compound 26] the figure was 4.62; with `COc1ccc(O)c(C(=O)Nc2cccc(OCCc3ccccc3OC)c2)c1` [Compound 186], 4.66; with `O=C(Nc1cc(Cl)ccc1OCCc1cccc(F)c1)c1cc(Cl)ccc1O` [Compound 111], 6.00. Same read-out and setting: with `COc1ccc(C(=O)Nc2cccc(OCCc3ccccc3OC)c2)c(O)c1` [Compound 182] the figure was 4.64; with `O=C(Nc1cc(Cl)ccc1Oc1ccc(Cl)c2ccccc12)c1cc(Cl)ccc1O` [Compound 31], 5.70; with `O=C(NCc1ccc(OCCc2ccccc2)cc1)c1cc(Cl)ccc1O` [Compound 53], 4.64. The same measure, in the same setting: with `O=C(Nc1cc(C(F)(F)F)ccc1OCCC1CC1)c1cc(Cl)ccc1O` [Compound 265] the figure was 6.05; with `CCOc1cc(CNc2cccc(NC(=O)c3cc(Cl)ccc3O)c2)ccc1OCc1ccccc1` [Compound 10], 4.85; with `Cc1ccccc1COc1ccc(Cl)cc1NC(=O)c1cc(Cl)ccc1O` [Compound 313], 5.52. With `COc1ccccc1CCOc1ccc(Cl)cc1NC(=O)c1cc(Cl)ccc1O` [Compound 133], the pEC50 was 5.52. Still for that read-out and setting: with `CCC(C)c1cccc(-c2cccc(CNC(=O)c3cc(Cl)ccc3O)c2)c1` (stereo not drawn) [Compound 236] the figure was 4.96; with `Cc1ccc(CCOc2cccc(NC(=O)c3cc(Cl)ccc3O)c2)cc1` [Compound 59], 5.00. Same read-out and setting: as for `O=C(Nc1cc(Cl)ccc1OCCC1CC1)c1cc(Cl)ccc1O` [Compound 288], the figure is 5.48; as for `COc1ccccc1CCOc1cccc(NC(=O)c2cc(-c3ccc(Cl)c(Cl)c3)ccc2O)c1` [Compound 341], 5.05; as for `Cc1cccc(CCOc2cccc(NC(=O)c3cc(Cl)ccc3O)c2)c1` [Compound 57], 4.82. The same measure, in the same setting: as for `O=C(NCc1cccc(OCCc2ccccc2)c1)c1cc(Cl)ccc1O` [Compound 66], the figure is 4.30; as for `O=C(Nc1cc(Cl)ccc1OCCc1cccc(Cl)c1)c1cc(Cl)ccc1O` [Compound 109], 6.00. In the case of `CS(=O)(=O)c1ccc(CCOc2ccc(C(F)(F)F)cc2NC(=O)c2cc(Cl)ccc2O)cc1` [Compound 287], the pEC50 was 5.51. Still for that read-out and setting: as for `O=C(Nc1cccc(OCCc2ccccc2)c1)c1ccc(F)cc1O` [Compound 191], the figure is 4.82.

As for `COC(=O)C=Cc1ccccc1CCOc1ccc(Cl)cc1NC(=O)c1cc(Cl)ccc1O` [Compound 302], the pEC50 is 5.52. Same read-out and setting: as for `CC(C)c1ccc(CCOc2ccc(Cl)cc2NC(=O)c2cc(Cl)ccc2O)cc1` [Compound 100], the figure is 6.00; as for `Cc1ccccc1CCOc1ccc(Cl)cc1NC(=O)c1cc(Cl)ccc1O` [Compound 76], 6.00; as for `COc1ccccc1CCOc1cccc(NC(=O)c2cc(-n3cccc3)ccc2O)c1` [Compound 233], 5.00.

On to `O=C(Nc1cc(Cl)ccc1OCCc1ccc(Cl)cc1)c1cc(Cl)ccc1O` [Compound 87], for which the negative logarithm of the EC50 (pEC50) was 6.05. `O=C(Nc1cccc(OCc2ccccc2)c1)c1cc(Cl)ccc1O` [Compound 15] showed a pEC50 of 4.92. The same measure, in the same setting: as for `O=C(Nc1cc(COCc2ccccc2)ccc1Cl)c1cc(Cl)ccc1O` [Compound 279], the figure is 5.22; as for `Cc1cccc(CCOc2ccc(Cl)cc2NC(=O)c2cc(Cl)ccc2O)c1` [Compound 77], 6.00; as for `O=C(NCc1cccc(-c2ccccc2)c1)c1cc(F)ccc1O` [Compound 190], 4.46. Still for that read-out and setting: as for `Cc1ccc(OCCc2cccc(C(F)(F)F)c2)cc1NC(=O)c1cc(Cl)ccc1O` [Compound 333], the figure is 5.59; as for `O=C(NCc1cc(F)cc(C(F)(F)F)c1)c1cc(Cl)ccc1O` [Compound 320], 4.76. Still for that read-out and setting: as for `O=C(Nc1cc(C(F)(F)F)ccc1OCCc1ccc(OC(F)(F)F)cc1)c1cc(Cl)ccc1O` [Compound 162], the figure is 6.05; as for `O=C(Nc1cccc(OC2CCCC[C@H]2c2ccccc2)c1)c1cc(Cl)ccc1O` (stereo partly drawn) [Compound 17], 5.70. Regarding `O=C(NCCc1ccc(OCc2ccccc2)c(OCc2ccccc2)c1)c1cc(Cl)ccc1O` [Compound 69], the pEC50 is 4.85. Same read-out and setting: as for `O=C(Nc1cc(C(F)(F)F)ccc1OCCOc1ccc(Cl)cc1)c1cc(Cl)ccc1O` [Compound 300], the figure is 6.00.

Staying with this assay, now noted: Homo sapiens; LNCaP cells; flagged "Estimated": based on actual data at different concentrations.
Regarding `CCc1ccccc1-c1cccc(CNC(=O)c2cc(Cl)ccc2O)c1` [Compound 146], the pEC50 was 4.52. Same read-out and setting: with `O=C(Nc1cc(NC(=O)c2cc(Cl)ccc2O)cc(C(F)(F)F)c1)c1cc(Cl)ccc1O` [Compound 151] the figure was 4.52. Same read-out and setting: as for `O=C(c1ccccc1)c1ccc(NC(=O)c2cc(Cl)ccc2O)cc1` [Compound 25], the figure is 4.70; as for `O=C(Nc1ccccc1C(=O)NCc1ccccc1)c1cc(Cl)ccc1O` [Compound 255], 4.52.
